Source: US11730712B2, “Functionalized long-chain hydrocarbon mono- and di-carboxylic acids and derivatives thereof, and their use for the prevention or treatment of disease” (ESPERVITA THERAPEUTICS, INC., priority 2021, dated 2023)

System: liver fibrosis gene panel (770 genes)
Assay: Nanostring nCounter Fibrosis panel gene expression in liver of DEN-injected mice
Format: in vivo, mouse
Conditions: vs vehicle
Method: Nanostring Analysis. RNA was extracted from paired liver and tumor tissue from vehicle, Compound I-1 (100 mg/kg) and Compound I-32 (100 mg/kg) treated mice using an RNeasy kit (Qiagen, Calif., USA) as per manufacturer's protocol. All RNA samples passed the BioAnalyzer quality control test. The expression of target genes in liver and tumor were analyzed using the nCounter Fibrosis and Cancer Panel (NanoString Technologies, Inc., WA, USA), respectively according to manufacturer's protocol at the McMaster Genomics Facility. Technical and biological normalization against global geometric mean was performed in nSolver 4.0 software (NanoString Technologies). Technical normalization was performed in the nSolver software (version 4.0.70) by normalizing sample target raw counts to the geometric mean of positive control spike-ins. Biological normalization was performed by normalizing sample target raw counts to the geometric mean of selected housekeeping genes (Ppia, Nubp1, Nol7, Armh3, Rplp0, Cnot10, Pgk1, and Acad9). Pathway scores were calculated as the first principal component of the normalized expression values for all genes in each pathway and samples were compiled according to experimental groups to determine average pathway scores. Statistical significance was calculated between experimental groups using multiple t-tests and p-values were corrected for multiple comparisons using Benjamin-Hochberg false discovery rate.
Molecular analysis. To identify the pathways modulated in the liver and tumor tissue, nanostring analysis of fibrosis and cancer, pathways, respectively were completed in an n=8 mice treated with vehicle or Compound I-32 or Compound I-1 at 100 mg/kg.

`CC(C)(CCCCc1ccc(CCCCC(C)(C)C(=O)O)cc1)C(=O)O` [Compound I-1, 6-[4-(5-carboxy-5-methylhexyl)-phenyl]-2,2-dimethylhexanoic acid] was tested, and the “Axl Log2FC” value (NM_009465, 100 mg/kg) was −0.493, the “Apoal Log2FC” value (NM_009692, 100 mg/kg) was −1.03 and the “Apob Log2FC” value (NM_009693, 100 mg/kg) was −0.289. The “Atox1 Log2FC” value (NM_009720, 100 mg/kg) was 0.157, the “Bcl2l1 Log2FC” value (NM_009743, 100 mg/kg) was −0.344 and the “Serping1 Log2FC” value (NM_009776, 100 mg/kg) was −0.631. The “C3ar1 Log2FC” value (NM_009779, 100 mg/kg) was −0.618, the “Calm1 Log2FC” value (NM_009790, 100 mg/kg) was −0.334 and the “Casp12 Log2FC” value (NM_009808, 100 mg/kg) was −0.633. For the same molecule, the “Casp3 Log2FC” value (NM_009810, 100 mg/kg) was −0.346, the “Casp6 Log2FC” value (NM_009811, 100 mg/kg) was 0.266 and the “Casp8 Log2FC” value (NM_009812, 100 mg/kg) was 0.195. For the same molecule, the “Serpinh1 Log2FC” value (NM_009825, 100 mg/kg) was −0.486, the “Cdk4 Log2FC” value (NM_009870, 100 mg/kg) was 0.26 and the “Cfh Log2FC” value (NM_009888, 100 mg/kg) was −1.41. The “Cxcr4 Log2FC” value (NM_009911, 100 mg/kg) was −0.931, the “Ccr2 Log2FC” value (NM_009915, 100 mg/kg) was −1.18 and the “Col3a1 Log2FC” value (NM_009930, 100 mg/kg) was −0.764. For the same molecule, the “Csnk2b Log2FC” value (NM_009975, 100 mg/kg) was 0.114, the “Ctsd Log2FC” value (NM_009983, 100 mg/kg) was 0.297 and the “Cyp4a10/31/32 Log2FC” value (NM_010011, 100 mg/kg) was 3.15. The “Fcer1g Log2FC” value (NM_010185, 100 mg/kg) was −0.406, the “Fga Log2FC” value (NM_010196, 100 mg/kg) was −0.563 and the “Fn1 Log2FC” value (NM_010233, 100 mg/kg) was −0.666. The “Got2 Log2FC” value (NM_010325, 100 mg/kg) was 0.224, the “H2-Aa Log2FC” value (NM_010378, 100 mg/kg) was −0.78 and the “H2-D1 Log2FC” value (NM_010380, 100 mg/kg) was −0.266. For the same molecule, the “H2-Eb1 Log2FC” value (NM_010382, 100 mg/kg) was −0.772, the “H2-Dma Log2FC” value (NM_010386, 100 mg/kg) was −0.391 and the “H2-DMB1 Log2FC” value (NM_010387, 100 mg/kg) was −0.938. For the same molecule, the “H2-T23 Log2FC” value (NM_010398, 100 mg/kg) was −0.403, the “Hc Log2FC” value (NM_010406, 100 mg/kg) was −0.325 and the “Hif1a Log2FC” value (NM_010431, 100 mg/kg) was 0.358. The “Hsp90aa1 Log2FC” value (NM_010480, 100 mg/kg) was 0.693, the “Icam1 Log2FC” value (NM_010493, 100 mg/kg) was −0.371 and the “Ikbkb Log2FC” value (NM_010546, 100 mg/kg) was −0.395. For the same molecule, the “Ilk Log2FC” value (NM_010562, 100 mg/kg) was −0.143, the “Itgb1 Log2FC” value (NM_010578, 100 mg/kg) was 0.106 and the “Fabp5 Log2FC” value (NM_010634, 100 mg/kg) was 1.1. The “Psmb8 Log2FC” value (NM_010724, 100 mg/kg) was −1.07, the “Loxl1 Log2FC” value (NM_010729, 100 mg/kg) was −1.1 and the “Lyn Log2FC” value (NM_010747, 100 mg/kg) was −0.32. The “Smad2 Log2FC” value (NM_010754, 100 mg/kg) was 0.246, the “Myd88 Log2FC” value (NM_010851, 100 mg/kg) was 0.261 and the “Nid1 Log2FC” value (NM_010917, 100 mg/kg) was −0.733. For the same molecule, the “P4hb Log2FC” value (NM_011032, 100 mg/kg) was −0.842, the “Pek1 Log2FC” value (NM_011044, 100 mg/kg) was −1.88 and the “Prkacb Log2FC” value (NM_011100, 100 mg/kg) was −0.158. The “Pltp Log2FC” value (NM_011125, 100 mg/kg) was 1.39, the “Ppard Log2FC” value (NM_011145, 100 mg/kg) was −0.466 and the “Pparg Log2FC” value (NM_011146, 100 mg/kg) was −0.615. The “Prkdc Log2FC” value (NM_011159, 100 mg/kg) was −0.568, the “Pros1 Log2FC” value (NM_011173, 100 mg/kg) was −0.22 and the “Lgmn Log2FC” value (NM_011175, 100 mg/kg) was −0.499. The “Psmb7 Log2FC” value (NM_011187, 100 mg/kg) was 0.204, the “Ptprc Log2FC” value (NM_011210, 100 mg/kg) was −0.49 and the “Rein Log2FC” value (NM_011261, 100 mg/kg) was −0.45. For the same molecule, the “S100a4 Log2FC” value (NM_011311, 100 mg/kg) was −1.28, the “Serpinf1 Log2FC” value (NM_011340, 100 mg/kg) was −0.18 and the “Sod1 Log2FC” value (NM_011434, 100 mg/kg) was 0.352. The “Srebf1 Log2FC” value (NM_011480, 100 mg/kg) was −0.608, the “Skp1a Log2FC” value (NM_011543, 100 mg/kg) was 0.227 and the “Thbs2 Log2FC” value (NM_011581, 100 mg/kg) was −0.831. For the same molecule, the “Timp2 Log2FC” value (NM_011594, 100 mg/kg) was −0.609 and the “Tjp2 Log2FC” value (NM_011597, 100 mg/kg) was 0.204.
